Measurements: ChEMBL document CHEMBL4428084, “Discovery and Optimization of N-(4-(3-Aminophenyl)thiazol-2-yl)acetamide as a Novel Scaffold Active against Sensitive and Resistant Cancer Cells” (J Med Chem, 2016)

What was measured:
[1] = tested on: K562; test: Cytotoxicity against imatinib-sensitive human K562 cells assessed as cell viability at 1 uM after 48 hrs by trypan blue exclusion assay relative to control; conditions: K562, 48 h, read-out: Activity
[2] = tested on: K562; test: Cytotoxicity against imatinib-resistant human K562 cells assessed as cell viability at 1 uM after 48 hrs by trypan blue exclusion assay relative to control; conditions: K562, 48 h, read-out: Activity
[3] = tested on: A-375; test: Cytotoxicity against vemurafenib-sensitive human A375 cells assessed as cell viability at 10 uM after 48 hrs by trypan blue exclusion assay relative to control; format: functional; conditions: A-375, 48 h, read-out: Activity
[4] = Cytotoxicity against vemurafenib-resistant human A375 R5C3 cells assessed as cell viability at 10 uM after 48 hrs by trypan blue exclusion assay relative to control; format: functional; conditions: A-375, 48 h, read-out: Activity
[5] = tested on: BXPC-3; test: Cytotoxicity against gemcitabine-sensitive human BxPC3 cells assessed as cell viability at 10 uM after 48 hrs by trypan blue exclusion assay relative to control; format: functional; conditions: BXPC-3, 48 h, read-out: Activity
[6] = tested on: K562; test: Cytotoxicity against imatinib-resistant human K562 cells assessed as cell viability at 10 uM after 48 hrs by trypan blue exclusion assay relative to control; format: functional; conditions: K562, 48 h, read-out: Activity
[7] = Cytotoxicity against vemurafenib-resistant human A375 RIV cells assessed as cell viability at 10 uM after 48 hrs by trypan blue exclusion assay relative to control; format: functional; conditions: A-375, 48 h, read-out: Activity
[8] = tested on: MIA PaCa-2; test: Cytotoxicity against gemcitabine-resistant human MIAPaCa2 cells assessed as cell viability at 10 uM after 48 hrs by trypan blue exclusion assay relative to control; format: functional; conditions: MIA PaCa-2, 48 h, read-out: Activity
[9] = tested on: K562; test: Cytotoxicity against imatinib-sensitive human K562 cells assessed as cell viability at 10 uM after 48 hrs by trypan blue exclusion assay relative to control; format: functional; conditions: K562, 48 h, read-out: Activity
[10] = tested on: A-375; test: Cytotoxicity against vemurafenib-sensitive human A375 cells assessed as cell viability at 5 uM after 48 hrs by trypan blue exclusion assay relative to control; format: functional; conditions: A-375, 48 h, read-out: Activity
[11] = Cytotoxicity against vemurafenib-resistant human A375 R5C3 cells assessed as cell viability at 5 uM after 48 hrs by trypan blue exclusion assay relative to control; format: functional; conditions: A-375, 48 h, read-out: Activity
[12] = Cytotoxicity against vemurafenib-resistant human A375 RIV cells assessed as cell viability at 5 uM after 48 hrs by trypan blue exclusion assay relative to control; format: functional; conditions: A-375, 48 h, read-out: Activity
[13] = tested on: A-375; test: Induction of apoptosis in human A375 cells assessed as cells with active caspase-3 at 1 uM after 12 hrs by flow cytometry (reference value: 4.16%); format: functional
[14] = Cytotoxicity against vemurafenib-resistant human A375 RIV cells assessed as cell viability at 1 uM after 48 hrs by trypan blue exclusion assay relative to control; format: functional; conditions: A-375, 48 h, read-out: Activity
[15] = tested on: MIA PaCa-2; test: Cytotoxicity against gemcitabine-resistant human MIAPaCa2 cells assessed as cell viability at 0.1 uM after 48 hrs by trypan blue exclusion assay relative to control; format: functional; conditions: MIA PaCa-2, 48 h, read-out: Activity
[16] = tested on: BXPC-3; test: Cytotoxicity against gemcitabine-sensitive human BxPC3 cells assessed as cell viability at 0.1 uM after 48 hrs by trypan blue exclusion assay relative to control; format: functional; conditions: BXPC-3, 48 h, read-out: Activity

Cc1ccc(NC(=O)c2ccc(CN3CCN(C)CC3)cc2)cc1Nc1nccc(-c2cccnc2)n1 [IMATINIB]
viability at 1 µM [1]: 9.7%
viability at 1 µM [2]: 85.5%

CC(=O)Nc1nc(-c2cccc(NS(=O)(=O)c3cn(C)cn3)c2)cs1
viability at 10 µM [3]: 36.8%

CC(=O)Nc1nc(-c2cccc(NS(=O)(=O)c3cccc4cccnc34)c2)cs1
viability at 10 µM [3]: 59.5%

CC(=O)Nc1nc(-c2cccc(NS(=O)(=O)c3ccccc3)c2)cs1
viability at 10 µM [3]: 72.2%

CC(=O)Nc1nc(-c2cccc(NS(=O)(=O)c3ccc4c(c3)OCCO4)c2)cs1
viability at 10 µM [3]: 29.6%

CC(=O)Nc1nc(-c2cccc(NS(=O)(=O)c3ccc(C)cc3)c2)cs1
viability at 10 µM [4]: 75.9%
viability at 10 µM [5]: 21.6%
viability at 10 µM [6]: 38.5%
viability at 10 µM [7]: 53.3%
viability at 10 µM [8]: 49.1%
viability at 10 µM [9]: 15.3%
viability at 10 µM [3]: 19.8%

CC(=O)Nc1nc(-c2cccc(NS(=O)(=O)c3cccc(C)c3)c2)cs1
viability at 10 µM [3]: 51.2%

CC(=O)Nc1nc(-c2cccc(NS(=O)(=O)c3ccc(-c4ccccc4)cc3)c2)cs1
viability at 10 µM [3]: 33.9%

CC(=O)Nc1nc(-c2cccc(NS(=O)(=O)c3cccc4ccccc34)c2)cs1
viability at 10 µM [3]: 20.4%

CC(=O)Nc1nc(-c2cccc(NS(=O)(=O)c3ccc4c(c3)CCC4)c2)cs1
viability at 10 µM [3]: 26.3%

CCCS(=O)(=O)Nc1ccc(F)c(C(=O)c2c[nH]c3ncc(-c4ccc(Cl)cc4)cc23)c1F [VEMURAFENIB]
viability at 5 µM [10]: 44%
viability at 5 µM [11]: 101%
viability at 5 µM [12]: 76.7%

CN[C@@H]1C[C@H]2O[C@@](C)([C@@H]1OC)n1c3ccccc3c3c4c(c5c6ccccc6n2c5c31)C(=O)NC4 [STAUROSPORINE]
Activity [13]: 46.95%

CCCCCc1ccc(S(=O)(=O)Nc2cccc(-c3csc(NC(C)=O)n3)c2)cc1
viability at 10 µM [4]: 15.6%
viability at 10 µM [5]: < 1%
viability at 10 µM [6]: 72.7%
viability at 10 µM [7]: < 1%
viability at 10 µM [8]: < 1%
viability at 10 µM [9]: 51%
viability at 1 µM [14]: 27.7%
viability at 10 µM [3]: 2.8%

CCCCC#Cc1ccc(S(=O)(=O)Nc2cccc(-c3csc(NC(C)=O)n3)c2)cc1
viability at 10 µM [4]: 7.8%
viability at 10 µM [5]: < 1%
viability at 10 µM [6]: 35.1%
viability at 10 µM [7]: 10%
viability at 10 µM [8]: < 1%
viability at 10 µM [9]: 26.9%
viability at 10 µM [3]: < 1%

CCc1ccc(S(=O)(=O)Nc2cccc(-c3csc(NC(C)=O)n3)c2)cc1
viability at 10 µM [4]: 80.1%
viability at 10 µM [5]: 21%
viability at 10 µM [6]: 27%
viability at 10 µM [7]: 26.7%
viability at 10 µM [8]: 40.7%
viability at 10 µM [9]: 12.8%
viability at 10 µM [3]: 7.5%

CC(=O)Nc1nc(-c2cccc(NC(=O)c3ccc4ccccc4c3)c2)cs1
viability at 10 µM [4]: 63.8%
viability at 10 µM [5]: 1.5%
viability at 10 µM [6]: 89.7%
viability at 10 µM [7]: 30%
viability at 10 µM [8]: 7%
viability at 10 µM [9]: 53.9%
viability at 10 µM [3]: 18.3%

CC(=O)Nc1nc(-c2cccc(NS(=O)(=O)c3ccc(C)s3)c2)cs1
viability at 10 µM [3]: 37.5%

CC(=O)Nc1nc(-c2cccc(N)c2)cs1
viability at 10 µM [3]: 38.4%

CC(=O)Nc1nc(-c2cccc([N+](=O)[O-])c2)cs1
viability at 10 µM [3]: 47.3%

CC(=O)Nc1nc(-c2cccc(NS(=O)(=O)c3ccc(-c4ccc(C)cc4)cc3)c2)cs1
viability at 10 µM [3]: 26.3%

CC(=O)Nc1nc(-c2cccc(NS(=O)(=O)c3ccc4ccccc4c3)c2)cs1
viability at 10 µM [4]: 49.6%
viability at 10 µM [5]: 0.6%
viability at 10 µM [6]: 25.6%
viability at 10 µM [7]: 33.3%
viability at 10 µM [8]: 7%
viability at 10 µM [9]: 31%
viability at 10 µM [3]: 3.3%

CC(=O)Nc1nc(-c2cccc(NS(=O)(=O)c3cccs3)c2)cs1
viability at 10 µM [3]: 29.6%

CC(=O)Nc1nc(-c2cccc(NS(=O)(=O)c3ccc(I)cc3)c2)cs1
viability at 10 µM [4]: 8.4%
viability at 10 µM [5]: < 1%
viability at 10 µM [6]: 27%
viability at 10 µM [7]: 10%
viability at 10 µM [8]: 15.8%
viability at 10 µM [9]: 15%
viability at 10 µM [3]: < 1%

CC(=O)Nc1nc(-c2cccc(NS(=O)(=O)c3cc4ccccc4s3)c2)cs1
viability at 10 µM [3]: 29.2%

Nc1ccn([C@@H]2O[C@H](CO)[C@@H](O)C2(F)F)c(=O)n1 [GEMCITABINE]
viability at 0.1 µM [15]: 86.5%
viability at 0.1 µM [16]: 2%

CC(=O)Nc1nc(-c2cccc(NS(=O)(=O)c3cccc4c3ccn4C)c2)cs1
viability at 10 µM [3]: 60.7%

CCCCc1ccc(S(=O)(=O)Nc2cccc(-c3csc(NC(C)=O)n3)c2)cc1
viability at 10 µM [4]: 9.9%
viability at 10 µM [5]: 4.3%
viability at 10 µM [6]: 60.9%
viability at 10 µM [7]: 26.7%
viability at 10 µM [8]: < 1%
viability at 10 µM [9]: 51.6%
viability at 10 µM [3]: 2.2%

CC(=O)Nc1nc(-c2cccc(NS(=O)(=O)c3ccc(C(C)(C)C)cc3)c2)cs1
viability at 10 µM [4]: 51.1%
viability at 10 µM [5]: < 1%
viability at 10 µM [6]: 35.1%
viability at 10 µM [7]: < 1%
viability at 10 µM [8]: < 1%
viability at 10 µM [9]: 19.4%
viability at 1 µM [14]: 39.4%
viability at 10 µM [3]: 1.5%

CC(=O)Nc1nc(-c2cccc(NS(=O)(=O)c3sc(C)nc3C)c2)cs1
viability at 10 µM [3]: 29.2%

CC(=O)Nc1nc(-c2cccc(NS(=O)(=O)c3ccc4c(ccn4C)c3)c2)cs1
viability at 10 µM [3]: 46.5%

CC(=O)Nc1nc(-c2cccc(NC(=O)c3ccco3)c2)cs1
viability at 10 µM [3]: 29.2%

CCCCCCCC(=O)Nc1cccc(-c2csc(NC(C)=O)n2)c1
viability at 10 µM [3]: 40%

CC(=O)Nc1nc(-c2cccc(NS(=O)(=O)c3ccc4oc(=O)ccc4c3)c2)cs1
viability at 10 µM [3]: 65.5%

CC(=O)Nc1nc(-c2cccc(NS(=O)(=O)c3c[nH]cn3)c2)cs1
viability at 10 µM [3]: 45.7%
